Experimental data: patent US8318186B2, “Use of at least a fatty ester for preparing a composition designed to inhibit 5-α-reductase activity, in pharmacology, in particular dermatology, in cosmetics and as food additive” (Laboratoires Expanscience, priority 2000, dated 2012)
Several values for one entry are separate records, joined by “and”; a condition that tells them apart may be missing. Equal entries are not always repeated. Marks after values point to notes of the source that are not given here.

What was measured:
[1] = system: normal human dermal fibroblasts; test: Morphological examination of the fibroblasts (Example 4); assay type: cell-based; conditions: at 10 and 100 μg/ml
5α-reductase = test: Fatty acid esters on 5α-reductase activity, conversion of testosterone to 5α-dihydrotestosterone in normal human dermal fibroblast cultures (Example 4); assay type: cell-based; parameters: key to group by 5α-reductase inhibitory activity: group A with the highest inhibitory activity; group B with an intermediate inhibitory activity; conditions: for inhibition of the 5α-reductase activity: Example 4, p<0.05; for 5α-DHT formed per culture well, mean / 5α-DHT formed per culture well, single well: after 24 of incubation, DMSO 0.1% (v/v); for 5α-DHT formed per culture well, single well: single replicate
Description: The fibroblast culture medium (FCM) consisted of MEM/M199 (3:1, v/v) supplemented with penicillin (50 IU/ml), streptomycin (50 μg/ml), sodium bicarbonate (0.2%, w/v) and FCS (10%, v/v).
The assay system consisted of normal human dermal fibroblasts cultured as a monolayer. The fibroblasts were isolated from a residue from abdominal plastic surgery performed on a person (subject BIOPREDIC No. I0013). The cells were used at the fifth passage; they were cultured until the monolayers were confluent in FCM medium at 37° C. in a humid atmosphere containing 5% CO2.
The fibroblast incubation medium (FIM) consisted of FCM supplemented with tritiated testosterone (1.6×10^−7 M, that is 6.32 μCi/ml) and nonradiolabeled testosterone (3.84×10^−6 M)
The test products and finasteride were taken up in DMSO before being diluted in the incubation medium. […]
The fibroblast cultures were preincubated in the presence of the test products or of the reference product for 2 hours before adding the substrate, testosterone. For this step, the test products and the reference product were prepared in the FCM medium.
After preincubation, the fibroblast cultures were incubated in the presence of the test products or of the reference product prepared in the FIM medium for 22 hours at 37° C. in a humid atmosphere containing 5% CO2. Control cultures were incubated in the FIM medium in the absence of test products and of reference product. […]
Each experimental condition was tested in triplicate.
After the incubation period, the cells were subjected to the action of ultrasound in the FIM medium. The cellular lysates thus obtained were extracted with dichloromethane. After evaporation, the dry residues were taken up in methanol and were deposited on 60F254 silica plates (MERCK, reference 5554).
The migration solvent was a mixture of dichloromethane and ether (7:3, v/v) At the end of the migration, the silica plates were read using a BERTHOLD radioactivity scanner.
The metabolizing of testosterone to 5α-dihydro-testosterone under the various experimental conditions was calculated: the results (areas of the 5α-dihydrotestosterone peaks counted by the BERTHOLD scanner) were expressed in pmol of 5α-dihydro-testosterone formed per culture well. They were also expressed as a percentage of the 5α-reductase activity present in the “DMSO control” group.
The groups of data (control group and treated groups) were treated by a one-way analysis of variance (ANOVA 1, p<0.05), followed by a DUNNETT's test (p<0.05). The effect of the test products and of the reference product was compared with the “DMSO control” group. The effects of the test products were compared to each other by a two-way analysis of variance (ANOVA 2, p<0.05, factor 1=concentration and factor 2=treatment).
The same materials and methods are used as in example 3 above.
It was proposed to evaluate the effect of fatty acid esters on the 5α-reductase activity. An in vitro model of normal human dermal fibroblast cultures was selected. The products tested were chosen from the group of fatty acid esters varying in the length and the functionality of the fatty chain, and the nature of the alkoxy group. These esters are the following: methyl oleate, methyl linoleate, methyl stearate, methyl laurate, methyl undecylenate, butyl oleate, oleyl oleate and methyl ricinoleate.

CCCCCCCC/C=C\CCCCCCCCOC(=O)CCCCCCC/C=C\CCCCCCCC [Oleyl oleate, oleyl oleate]
state of the fibroblasts by morphological examination of the cells [1]: cellular suffering
5α-reductase activity as percentage of the “DMSO 0.1% (v/v)” group (5α-reductase; 1 μg/ml): 72 percentage of the “DMSO 0.1% (v/v)” group
inhibition of the 5α-reductase activity (5α-reductase; 1 μg/ml): 28%
5α-DHT formed per culture well, mean (5α-reductase; 1 μg/ml): 8.17* +/− pmol of 5α-DHT formed/culture well
5α-DHT formed per culture well, single well (5α-reductase; 1 μg/ml): 9.00 pmol of 5α-DHT formed/culture well and 7.32 pmol of 5α-DHT formed/culture well and 8.20 pmol of 5α-DHT formed/culture well
5α-reductase activity as percentage of the “DMSO 0.1% (v/v)” group (5α-reductase; 10 μg/ml): 55 percentage of the “DMSO 0.1% (v/v)” group
inhibition of the 5α-reductase activity (5α-reductase; 10 μg/ml): 45%
5α-DHT formed per culture well, mean (5α-reductase; 10 μg/ml): 6.25* +/− pmol of 5α-DHT formed/culture well
5α-DHT formed per culture well, single well (5α-reductase; 10 μg/ml): 6.12 pmol of 5α-DHT formed/culture well and 6.44 pmol of 5α-DHT formed/culture well and 6.20 pmol of 5α-DHT formed/culture well
5α-reductase activity as percentage of the “DMSO 0.1% (v/v)” group (5α-reductase; 100 μg/ml): 65 percentage of the “DMSO 0.1% (v/v)” group
inhibition of the 5α-reductase activity (5α-reductase; 100 μg/ml): 35%
5α-DHT formed per culture well, mean (5α-reductase; 100 μg/ml): 7.45* +/− pmol of 5α-DHT formed/culture well
5α-DHT formed per culture well, single well (5α-reductase; 100 μg/ml): 6.28 pmol of 5α-DHT formed/culture well and 8.60 pmol of 5α-DHT formed/culture well and 7.48 pmol of 5α-DHT formed/culture well
group by 5α-reductase inhibitory activity (5α-reductase; tested at 1, 10 and 100 μg/ml): A
